Usually IC50 stands for the concentration that gives 50% inhibition. The term melting point denotes the temperature of the solid-liquid transition.

We go through eleven molecules from PMC9693259, “Synthesis, Self-Assembly in Crystalline Phase and Anti-Tumor Activity of 2-(2-/4-Hydroxybenzylidene)thiazolo[3,2-a]pyrimidines” (Molecules, 2022).

Data set [1] deals with MCF-7 breast cancer cell line. Set-up: method as in PMID 25096298. To be noted: cited from earlier work.
Details of data set [2]: method as in doi:10.5935/0103-5053.20160038. To be noted: due to optimal hydrophilicity/lipophilicity; cited from earlier work.
For data set [3], the system named is anti-apoptotic Bcl protein. Set-up: method as in PMID 20405848. To be noted: cited from earlier work.
Data set [4] deals with M-HeLa clone 11 (epithelioid carcinoma of the cervix, subline HeLa, clone M-HeLa). The experiment in a line: MTT cytotoxicity test, M-HeLa. It counts as cell-based. The conditions noted are these: mean ± SD, triplicate. How it is done:
(§1) Formazan crystals were added to 100 µL of DMSO. […] The experiments for all compounds were repeated three times.
(In general: Tetrazolium dyes change colour on reduction, which living cells bring about.)

The test system of data set [5] is Chk1, Chk2, H2AX, MDM2, p53, p21, ATR in M-HeLa cells. The experiment in a line: Multiplex analysis of DNA damage/genotoxicity markers (MILLIPLEX MAP 7-plex, Luminex). It counts as cell-based. The conditions noted are these: IC50/2 and IC50, 24 h. The source says:
Classical methods of assessing genotoxicity reveal mutations associated with increased or loss of function, but are not informative enough in studying the molecular mechanisms of DNA damage. The MILLIPLEX® MAP 7-plex DNA Damage/Genotoxicity Magnetic Bead kit allows to detect the expression and phosphorylation of a number of proteins involved in DNA damage, providing a faster and more accurate assessment of the state of the cell after exposure to genotoxic compounds. The 7-plex DNA Damage/Genotoxicity Magnetic Bead Kit is used to detect changes in phosphorylated Chk1 (Ser345), Chk2 (Thr68), H2AX (Ser139) and p53 (Ser15), as well as total protein levels of ATR, MDM2, and p21 in cellular lysates using the Luminex® system. […] The obtained results characterize the effect of the leading compound 7 on the DNA of M-HeLa cells at concentrations of IC50/2 and IC50. […] The fluorescence intensity of OTR markers also increases relative to the reference sample. […]
The studies were carried out according to the standard protocol. […] A total of 20 μg of total protein of each lysate diluted in MILLIPLEX® MAP Assay Buffer 2 was analyzed according to the analysis protocol (the lysate was incubated at 4 °C overnight). The mean fluorescence intensity (MFI) was detected using Luminex® system, MERCK, Kenilworth, NJ, USA.

Data set [6] is described as follows: MTT cytotoxicity test, normal Chang liver cells. The conditions noted are these: human.
Text: (§2) For the experiments, tumor cell cultures of M-HeLa clone 11 (epithelioid carcinoma of the cervix, subline HeLa., clone M-HeLa), HuTu 80, human duodenal adenocarcinoma, MCF7—human breast adenocarcinoma (pleural fluid) collected from Institute of Cytology, Russian Academy of Sciences (St. Petersburg, Russia); PC3—prostate adenocarcinoma cell line collected from ATCC (American Type Cell Collection, Manassas, VA, USA; CRL 1435; human liver cells (Chang liver) and the Research Institute of Virology of the Russian Academy of Medical Sciences (Moscow, Russia) were used for cytotoxicity analysis.
(§3) The cytotoxic effect on cells was determined using the colorimetric method of cell proliferation—the MTT test. NADP-H-dependent cellular oxidoreductase enzymes can, under certain conditions, reflect the number of viable cells. These enzymes are able to reduce the tetrazolium dye (MTT)—3-(4,5-dimethylthiazol-2-yl)-2,5-diphenyl-tetrazolium bromide to insoluble blue-violet formazan, which crystallizes inside the cell. The amount of formazan formed is proportional to the number of cells with active metabolism. Cells were seeded on a 96-well Nunc plate at a concentration of 5 × 10^3 cells per well in a volume of 100 μL of medium and cultured in a CO2 incubator at 37 °C until a monolayer was formed. […] After 48 h of incubation of the cells with the tested compounds, the nutrient medium was removed from the plates and 100 µL of the nutrient medium without serum with MTT at a concentration of 0.5 mg/mL was added and incubated for 4 h at 37 °C. Formazan crystals were added to 100 µL of DMSO. Optical density was recorded at 540 nm on an Invitrologic microplate reader (Novosibirsk, Russia). The experiments for all compounds were repeated three times.
(§4) Statistical analysis was performed using the Mann–Whitney test (p < 0.05). Tabular and graphical data contain the averages and standard error.
Data set [7] has as its system Chang liver (HeLa derivative) human liver cells. The experiment in a line: MTT cytotoxicity test, normal Chang liver cells. To be noted: 48 h, read-out: IC50 Chang Liver (HeLa), normal cell line.
Text: as §2, §3, §4
The subject of data set [8] is PC3 prostate adenocarcinoma cell line. Description: MTT cytotoxicity test, PC3. It counts as cell-based. The conditions noted are these: mean ± SD, triplicate. How it is done:
as §1

The test system of data set [9] is MCF-7 (human mammary duct adenocarcinoma cell line). Description: MTT cytotoxicity test, MCF-7. It counts as cell-based. To be noted: triplicate. As for the experimental part: as §1
The test system of data set [10] is HuTu 80 human duodenal adenocarcinoma. Description: MTT cytotoxicity test, HuTu 80. It counts as cell-based. To be noted: triplicate. As for the experimental part: as §1
The mark [11] stands for this setting: Homo sapiens, M-HeLa, 48 h, read-out: IC50 M-HeLa.
Where [12] appears, read: Homo sapiens, M-HeLa, lead compounds, read-out: IC50 M-HeLa (Table 2).
[13] abbreviates: lead compounds, read-out: IC50 PC3 (Table 2).
Where [14] appears, read: Homo sapiens, MCF7, 48 h, mean ± SD, read-out: IC50 MCF-7.
[15] abbreviates: Homo sapiens, MCF7, mean ± SD, lead compounds, read-out: IC50 MCF-7 (Table 2).
The mark [16] stands for this setting: Homo sapiens, HuTu80, 48 h, mean ± SD, read-out: IC50 HuTu 80.
Setting [17] is: Homo sapiens, HuTu80, mean ± SD, lead compounds, read-out: IC50 HuTu 80 (Table 2).

Where two headings read alike, the source gives them in different places.

For `COc1ccc2c(c1)CCC1=C2N=c2s/c(=C\c3c[nH]c4ccc(Br)cc34)c(=O)n2C1c1ccc(Cl)cc1` (stereo not drawn) [Compound 1], the “cytotoxicity efficiency relative to doxorubicin” value in data set [1] is recorded as 1.15 times. Moreover, the “absorption ability in the gastrointestinal tract” value in [2] is “high absorption ability”.

Consider `COc1ccc(C2C3=C(N=c4s/c(=C\c5c[nH]c6ccc(Br)cc56)c(=O)n42)c2ccc(OC)cc2CC3)cc1` (stereo not drawn) [Compound 3], for which the 50% inhibitory concentration (IC50) in data set [3] is 3.4 µM.

As to `CCOC(=O)C1=C(C)N=c2s/c(=C\c3ccccc3O)c(=O)n2C1c1ccccc1` (stereo not drawn) [Compound 7, ethyl (Z)-2-(2-hydroxybenzylidene)-7-methyl-3-oxo-5-phenyl-2,3-dihydro-5H-thiazolo[3,2-a]pyrimidine-6-carboxylate], the half-inhibitory concentration (IC50) turned out to be 11.9 ± 0.9 µM in data set [4] (setting [11]); 11.9 ± 0.9 µM in data set [4] (setting [12]); 75 ± 5.7 µM in data set [7] (Homo sapiens, HeLa); 77.6 ± 6.7 µM in data set [8] (48 h, read-out: IC50 PC3); 77.6 ± 6.7 µM in data set [8] (setting [13]); 43.7 ± 3.5 µM in data set [9] (setting [14]). Also, the IC50 turned out to be 43.7 ± 3.5 µM in [9] (setting [15]), 10.2 ± 0.8 µM in data set [10] (setting [16]) and 10 ± 0.8 µM in data set [10] (setting [17]). In addition, the “average fluorescence intensity of the markers Chk1, Chk2, H2AX, MDM2, p53, and p21” value in data set [5] (compared to untreated control) is recorded as “significantly increase”. The “fluorescence intensity of OTR markers” value in data set [5] (relative to the reference sample) is recorded as “increases”. Moreover, 75 ± 5.7 µM corresponded to half-maximal inhibition in [6] (IC50 at 48 h).

With `CCOC(=O)C1=C(C)N=c2s/c(=C\c3ccccc3O)c(=O)n2C1c1cccc([N+](=O)[O-])c1` (stereo not drawn) [Compound 10, Ethyl (Z)-2-(2-hydroxybenzylidene)-7-methyl-5-(3-nitrophenyl)-3-oxo-2,3-dihydro-5H-thiazolo[3,2-a]pyrimidine-6-carboxylate], the melting point is 187 to 189 °C. The concentration for half-maximal inhibition (IC50) in [4] (setting [11]) was 55 ± 4.4 µM. Moreover, in [4] (setting [12]), the concentration for half-maximal inhibition (IC50) came to 55 ± 4.4 µM. The molecule further displayed a half-inhibitory concentration (IC50) at 48 h in data set [6] of 88 ± 7 µM. For the same molecule, in [7] (Homo sapiens, HeLa), the concentration for half-maximal inhibition (IC50) was 88 ± 7 µM. In addition, the IC50 in [8] (48 h, read-out: IC50 PC3) was 56 ± 4.4 µM. Besides, in [8] (setting [13]), the half-maximal inhibitory concentration (IC50) came to 56 ± 4.4 µM. The IC50 in [9] (setting [14]) was 56 ± 4.5 µM. Moreover, in data set [9] (setting [15]), the half-inhibitory concentration (IC50) amounted to 56 ± 4.5 µM. The IC50 in data set [10] (setting [16]) amounted to 60 ± 4.7 µM. Also, the IC50 in data set [10] (setting [17]) is 14.6 ± 0.3 µM.

With `COc1ccccc1C1C(C(=O)c2ccccc2)=C(C)N=c2s/c(=C\c3ccccc3O)c(=O)n21` (stereo not drawn) [Compound 11, (Z)-6-benzoyl-2-(2-hydroxybenzylidene)-5-(2-methoxyphenyl)-7-methyl-5H-thiazolo[3,2-a]pyrimidin-3(2H)-one], the melting point is 167 to 169 °C. Further, the IC50 in data set [4] (setting [11]) turned out to be 56.4 ± 4.5 µM. In addition, in data set [7] (Homo sapiens, HeLa), the IC50 turned out to be 64 ± 5.1 µM. Moreover, in data set [8] (48 h, read-out: IC50 PC3), the IC50 came out at 54 ± 4.3 µM. Also, the 50% inhibitory concentration (IC50) in data set [9] (setting [14]) worked out at 81 ± 7.4 µM. For the same molecule, the half-inhibitory concentration (IC50) in [10] (setting [16]) was determined as 39 ± 3.1 µM.

For `CCOC(=O)C1=C(C)N=c2s/c(=C\c3ccccc3O)c(=O)n2C1c1ccc(Br)cc1` (stereo not drawn) [Compound 12, Ethyl (Z)-5-(4-bromophenyl)-2-(2-hydroxybenzylidene)-7-methyl-3-oxo-2,3-dihydro-5H-thiazolo[3,2-a]pyrimidine-6-carboxylate], the melting point is 201 to 203 °C. Besides, the concentration for half-maximal inhibition (IC50) in [4] (setting [11]) was found to be 18.8 ± 1.5 µM. Also, in data set [4] (setting [12]), the IC50 amounted to 18.8 ± 1.5 µM. The same molecule had an IC50 at 48 h in [6] of 78.2 ± 6.2 µM. Also, the IC50 in data set [7] (Homo sapiens, HeLa) was 78.2 ± 6.2 µM. For the same molecule, the IC50 in data set [8] (48 h, read-out: IC50 PC3) is 28.1 ± 2.2 µM. The half-inhibitory concentration (IC50) in data set [8] (setting [13]) is 28.1 ± 2.2 µM. In addition, the IC50 in data set [9] (setting [14]) turned out to be 22.3 ± 1.4 µM. For the same molecule, the concentration for half-maximal inhibition (IC50) in data set [9] (setting [15]) amounted to 52.7 ± 4.2 µM. Also, in data set [10] (setting [16]), the half-inhibitory concentration (IC50) turned out to be 23.7 ± 1.8 µM. The 50% inhibitory concentration (IC50) in [10] (setting [17]) was 23.7 ± 1.8 µM.

In the case of `CCOC(=O)C1=C(C)N=c2s/c(=C\c3ccc(O)cc3)c(=O)n2C1c1ccccc1` (stereo not drawn) [Compound 13, ethyl (Z)-2-(4-hydroxybenzylidene)-7-methyl-3-oxo-5-phenyl-2,3-dihydro-5H-thiazolo[3,2-a]pyrimidine-6-carboxylate], the IC50 in [4] (setting [11]) is 70 ± 5.5 µM; in data set [7] (Homo sapiens, HeLa), 86.1 ± 6.8 µM; in data set [8] (48 h, read-out: IC50 PC3), 54 ± 4.3 µM; in data set [9] (setting [14]), over 100 µM; in data set [10] (setting [16]), 43.3 ± 3.5 µM.

In the case of `CCOC(=O)C1=C(C)N=c2s/c(=C\c3ccc(O)cc3)c(=O)n2C1c1ccc(Br)cc1` (stereo not drawn) [Compound 14, Ethyl (Z)-5-(4-bromophenyl)-2-(4-hydroxybenzylidene)-7-methyl-3-oxo-2,3-dihydro-5H-thiazolo[3,2-a]pyrimidine-6-carboxylate], the melting point was 207 to 209 °C. The IC50 in data set [4] (setting [11]) worked out at 31 ± 2.4 µM. Moreover, the 50% inhibitory concentration (IC50) in [7] (Homo sapiens, HeLa) was 53.2 ± 4.2 µM. Also, the concentration for half-maximal inhibition (IC50) in data set [8] (48 h, read-out: IC50 PC3) was 49.3 ± 3.9 µM. For the same molecule, the IC50 in [9] (setting [14]) is 53.3 ± 4.2 µM. Also, the IC50 in data set [10] (setting [16]) was found to be 32.1 ± 2.5 µM.

`CCOC(=O)C1=C(C)N=c2s/c(=C\c3ccc(O)cc3)c(=O)n2C1c1cccc([N+](=O)[O-])c1` (stereo not drawn) [Compound 15, Ethyl (Z)-2-(4-hydroxybenzylidene)-7-methyl-5-(3-nitrophenyl)-3-oxo-2,3-dihydro-5H-thiazolo[3,2-a]pyrimidine-6-carboxylate] showed a melting point of 190 to 192 °C. Moreover, the concentration for half-maximal inhibition (IC50) in [4] (setting [11]) was over 100 µM. Further, the concentration for half-maximal inhibition (IC50) in data set [7] (Homo sapiens, HeLa) worked out at 91.4 ± 7.2 µM. Further, in data set [8] (48 h, read-out: IC50 PC3), the concentration for half-maximal inhibition (IC50) stood at 70 ± 5.5 µM. Also, in data set [9] (setting [14]), the 50% inhibitory concentration (IC50) was over 100 µM. For the same molecule, the IC50 in [10] (setting [16]) was 74.5 ± 5.7 µM.

On to `CNC(=O)c1cc(Oc2ccc(NC(=O)Nc3ccc(Cl)c(C(F)(F)F)c3)cc2)ccn1` [Sorafenib, reference compound], for which the half-inhibitory concentration (IC50) in data set [4] (setting [11]) was found to be 25 ± 1.8 µM; in data set [4] (setting [12]), 25 ± 1.8 µM; in data set [7] (Homo sapiens, HeLa) it was 21.7 ± 1.7 µM; in data set [8] (48 h, read-out: IC50 PC3), 12.7 ± 1.1 µM; in [8] (setting [13]), 27.5 ± 2.2 µM; in [9] (setting [14]) it was 27.5 ± 2.2 µM. For the same molecule, the half-maximal inhibitory concentration (IC50) in data set [9] (setting [15]) came to 27.5 ± 2.2 µM; in data set [10] (setting [16]), 13 ± 1.2 µM; in data set [10] (setting [17]) it was 13 ± 1.2 µM. The IC50 at 48 h in data set [6] was determined as 21.7 ± 1.7 µM.

As for “ethyl (Z)-2-(2-hydroxybenzylidene)-5-(4-methoxyphenyl)-7-methyl-3-oxo-2,3-dihydro-5H-thiazolo[3,2-a]pyrimidine-6-carboxylate [Compound 8]”, the half-maximal inhibitory concentration (IC50) in [4] (48 h, read-out: IC50 M-HeLa) amounted to 90 ± 8.3 µM; in [7] (MTT, mean ± SD, triplicate) it was 56.4 ± 4.5 µM; in data set [8] (48 h, read-out: IC50 PC3), 93.7 ± 8.5 µM; in data set [9] (48 h, mean ± SD, read-out: IC50 MCF-7), 93.3 ± 8.2 µM; in data set [10] (48 h, mean ± SD, read-out: IC50 HuTu 80), 85.9 ± 8 µM.
